Data taken from ChEMBL document CHEMBL1944579, “Discovery of a potent and orally bioavailable benzolactam-derived inhibitor of Polo-like kinase 1 (MLN0905)” (J Med Chem, 2012).

How the values were obtained:
[1] = Drug uptake in tumor of nude mouse xenografted with human HT-29 cells at 50 mg/kg, po after 24 hrs; assay type: ADME, organism-based, Neoplasm; design: dose 50 mg/kg, route oral; conditions: read-out: Drug uptake
[2] = Drug uptake in tumor of nude mouse xenografted with human HT-29 cells at 50 mg/kg, po after 48 hrs; assay type: ADME, organism-based, Neoplasm; design: dose 50 mg/kg, route oral; conditions: read-out: Drug uptake
[3] = Drug uptake in tumor of nude mouse xenografted with human HT-29 cells at 50 mg/kg, po after 72 hrs; assay type: ADME, organism-based, Neoplasm; design: dose 50 mg/kg, route oral; conditions: read-out: Drug uptake
[4] = Volume of distribution at steady state in Sprague-Dawley rat at 1 mg/kg, iv; assay type: ADME, organism-based; design: dose 1 mg/kg, route intravenous; conditions: in vivo, read-out: Vdss
[5] = Half life in Sprague-Dawley rat at 1 mg/kg, iv; assay type: ADME, organism-based; design: dose 1 mg/kg, route intravenous; conditions: in vivo
[6] = Plasma clearance in nude NCR mouse at 2 mg/kg, iv; assay type: ADME, organism-based; design: dose 2 mg/kg, route intravenous
[7] = Volume of distribution at steady state in nude NCR mouse at 2 mg/kg, iv; assay type: ADME, organism-based; design: dose 2 mg/kg, route intravenous; conditions: in vivo, read-out: Vdss
[8] = Half life in nude NCR mouse at 2 mg/kg, iv; assay type: ADME, organism-based; design: dose 2 mg/kg, route intravenous; conditions: in vivo
[9] = Cmax in Sprague-Dawley rat at 5 mg/kg, po; assay type: ADME, organism-based; design: dose 5 mg/kg, route oral; conditions: in vivo
[10] = Tmax in Sprague-Dawley rat at 5 mg/kg, po; assay type: ADME, organism-based; design: dose 5 mg/kg, route oral; conditions: in vivo
[11] = Oral bioavailability in Sprague-Dawley rat at 5 mg/kg; assay type: ADME, organism-based; conditions: in vivo
[12] = Cmax in nude NCR mouse at 12.5 mg/kg, po; assay type: ADME, organism-based; design: dose 12.5 mg/kg, route oral; conditions: in vivo
[13] = Tmax in nude NCR mouse at 12.5 mg/kg, po; assay type: ADME, organism-based; design: dose 12.5 mg/kg, route oral; conditions: in vivo
[14] = Oral bioavailability in nude NCR mouse at 12.5 mg/kg; assay type: ADME, organism-based; conditions: in vivo
[15] = Drug uptake in tumor of nude mouse xenografted with human HT-29 cells at 25 mg/kg, po after 24 hrs; assay type: ADME, organism-based, Neoplasm; design: dose 25 mg/kg, route oral; conditions: read-out: Drug uptake
[16] = Drug uptake in tumor of nude mouse xenografted with human HT-29 cells at 25 mg/kg, po after 48 hrs; assay type: ADME, organism-based, Neoplasm; design: dose 25 mg/kg, route oral; conditions: read-out: Drug uptake
[17] = Drug uptake in tumor of nude mouse xenografted with human HT-29 cells at 25 mg/kg, po after 72 hrs; assay type: ADME, organism-based, Neoplasm; design: dose 25 mg/kg, route oral; conditions: read-out: Drug uptake
[18] = Drug uptake in tumor of nude mouse xenografted with human HT-29 cells at 12.5 mg/kg, po after 24 hrs; assay type: ADME, organism-based, Neoplasm; design: dose 12.5 mg/kg, route oral; conditions: read-out: Drug uptake
[19] = Drug uptake in tumor of nude mouse xenografted with human HT-29 cells at 12.5 mg/kg, po after 48 hrs; assay type: ADME, organism-based, Neoplasm; design: dose 12.5 mg/kg, route oral; conditions: read-out: Drug uptake
[20] = Drug uptake in tumor of nude mouse xenografted with human HT-29 cells at 12.5 mg/kg, po after 72 hrs; assay type: ADME, organism-based, Neoplasm; design: dose 12.5 mg/kg, route oral; conditions: read-out: Drug uptake
[21] = Drug uptake in tumor of nude mouse xenografted with human HT-29 cells at 6.25 mg/kg, po after 24 hrs; assay type: ADME, organism-based, Neoplasm; design: dose 6.25 mg/kg, route oral; conditions: read-out: Drug uptake
[22] = Drug uptake in tumor of nude mouse xenografted with human HT-29 cells at 6.25 mg/kg, po after 48 hrs; assay type: ADME, organism-based, Neoplasm; design: dose 6.25 mg/kg, route oral; conditions: read-out: Drug uptake
[23] = Drug uptake in tumor of nude mouse xenografted with human HT-29 cells at 6.25 mg/kg, po after 72 hrs; assay type: ADME, organism-based, Neoplasm; design: dose 6.25 mg/kg, route oral; conditions: read-out: Drug uptake
[24] = Toxicity in po dosed nude mouse administered once daily; assay type: organism-based; conditions: in vivo
[25] = Toxicity in po dosed nude mouse administered qd for 1 day in a week; assay type: organism-based; conditions: in vivo
[26] = Toxicity in po dosed nude mouse administered qd for 3 days in a week; assay type: organism-based; conditions: in vivo
[27] = Plasma clearance in Sprague-Dawley rat at 1 mg/kg, iv; assay type: ADME, organism-based; design: dose 1 mg/kg, route intravenous

`Cc1ncc(CCCN(C)C)cc1Nc1ncc2c(n1)-c1ccc(Cl)cc1NC(=S)C2` gave a concentration at 24 h [1] of 1080 nM, a concentration at 48 h [2] of 332 nM and a concentration at 72 h [3] of 60.3 nM.

With `Cc1ncc(CCCN(C)C)cc1Nc1ncc2c(n1)-c1ccc(C(F)(F)F)cc1NC(=S)C2` the Vd [4] was 10.2 L/kg, the half-life [5] was 4.7 h and the clearance [6] was 41.7 mL/min/kg. For the same compound, the Vd [7] was 6.2 L/kg, the half-life [8] was 3.4 h and the Cmax [9] was 335 nM. It also gave a Tmax [10] of 4 h, a bioavailability [11] of 72% and a Cmax [12] of 720 nM. For the same compound, the Tmax [13] was 4 h, the bioavailability [14] was 45% and the concentration at 24 h [15] was 920 nM. It also gave a concentration at 48 h [16] of 369 nM, a concentration at 72 h [17] of 163 nM and a concentration at 24 h [18] of 339 nM. It also gave a concentration at 48 h [19] of 353 nM, a concentration at 72 h [20] of 139 nM and a concentration at 24 h [21] of 239 nM. For the same compound, the concentration at 48 h [22] was 121 nM, the concentration at 72 h [23] was 98 nM and the MTD [24] was 12.5 mg/kg. It also gave an MTD at 24 h [25] of 50 mg/kg, an MTD at 72 h [26] of 25 mg/kg and a concentration at 24 h [1] of 1470 nM. For the same compound, the concentration at 48 h [2] was 476 nM, the concentration at 72 h [3] was 376 nM and the clearance [27] was 38.3 mL/min/kg.
